# Source: the supplement of paper PMC10702517
# ± gives the standard deviation.
# Experiments:
# [1] = chemical recovery from spiked human plasma; higher = better extraction; details: pooled human plasma
# [2] = chemical recovery into PDMS from spiked human plasma; higher = better extraction; details: pooled human plasma, extraction method: PES with PDMS
# [3] = chemical recovery by SPE of plasma after PDMS sampling; higher = better extraction; details: pooled human plasma, extraction method: HLB SPE of plasma after PES
# [4] = extraction method: PES+SPE (3 d PDMS equilibration then HLB SPE)
# [5] = extraction method: SPE only (HLB 96-well)
# [6] = extraction method: SPE only (HLB 96-well), PES comparison experiment
# [7] = extraction method: solvent precipitation (ACN + hexane)
# 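For chemical recovery by SPE of plasma after PDMS sampling in this document: over 400 spiked chemicals quantified by LC-HRMS or GC-HRMS via internal standard calibration, recovery relative to spike mix added to unspiked plasma extract to correct matrix effects.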
SMILES,"chemical recovery [1, 4] [%]","chemical recovery [1, 5] [%]","chemical recovery [1, 6] [%]",chemical recovery into PDMS ([2]; equilibration time (d): 1) [%],chemical recovery into PDMS ([2]; equilibration time (d): 3) [%],chemical recovery into PDMS ([2]; equilibration time (d): 6) [%],chemical recovery by SPE of plasma ([3]; equilibration time (d): 1) [%],chemical recovery by SPE of plasma ([3]; equilibration time (d): 3) [%],chemical recovery by SPE of plasma ([3]; equilibration time (d): 6) [%],"chemical recovery [1, 7] [%]"
CC(C)(C)Nc1nc(N)nc(Cl)n1 [Desethylterbutylazine],40.7 ± 4.8,42.1 ± 2.3,46.9 ± 5.4,38 ± 1.5,40.9 ± 0.82,42.7 ± 1.9,10 ± 1.1,9.29 ± 1,6.03 ± 0.45,
OC(Cc1ccccc1Cl)(Cn1cncn1)C1(Cl)CC1 (stereo not given) [Prothioconazole-desthio],,,47 ± 6.8,36.2 ± 2.6,38.6 ± 2,38.5 ± 1.7,0.693 ± 0.059,0.829 ± 0.22,0.428 ± 0.025,89.2 ± 4
COC[P+](c1ccccc1)(c1ccccc1)c1ccccc1 [(Methoxymethyl)triphenylphosphonium],40.1 ± 4.1,36.1 ± 3.5,48.7 ± 4.5,,0.00031 ± 0.0019,0.00283 ± 0.0035,50.8 ± 5.7,50.4 ± 4.2,48.9 ± 5.7,71.1 ± 3.3
CC(C)C1(C)N=C(c2ncccc2C(=O)O)NC1=O (stereo not given) [Imazapyr],44.4 ± 2.9,44.7 ± 9.6,52.5 ± 4,,,0.0849 ± 0.048,49.5 ± 5.4,53.1 ± 3.2,49.2 ± 2.4,67.7 ± 5.8
CNC(=O)CSP(=O)(OC)OC [Omethoate],,12.4 ± 5.1,40.1 ± 8.6,4.04 ± 3.2,5.92 ± 3.5,5.94 ± 4.2,,13.5 ± 2.3,,
S=C1NCCN1 [Ethylenethiourea],0.046 ± 0.019,0.261 ± 0.34,,,,0.013 ± 0.022,,0.0882 ± 0.15,0.15 ± 0.26,
"ClC(Cl)=C(c1ccc(Cl)cc1)c1ccc(Cl)cc1 [4,4-DDE]",,,13 ± 3,83.8 ± 12,87.9 ± 3.9,93 ± 13,0.964 ± 1,0.268 ± 0.47,,
Cc1ccc(-c2cc(C(F)(F)F)nn2-c2ccc(S(N)(=O)=O)cc2)cc1 [Celecoxib],,33.2 ± 6.9,47.6 ± 5,1.77 ± 0.12,6.98 ± 2.7,8.5 ± 3.5,45.7 ± 5.5,39.7 ± 1.8,32.4 ± 1.7,42.7 ± 2.1
Fc1ccc([C@@H]2CCNC[C@H]2COc2ccc3c(c2)OCO3)cc1 [Paroxetine],3.9 ± 1.1,63.1 ± 3.8,42.8 ± 9.2,0.404 ± 0.21,0.313 ± 0.1,0.637 ± 0.5,2.65 ± 0.22,3.11 ± 0.29,2.27 ± 0.16,61.7 ± 1.7
Oc1cc(Cl)ccc1Oc1ccc(Cl)cc1Cl [Triclosan],49.8 ± 4.3,34.5 ± 1.1,40.3 ± 7.5,16 ± 1.1,21 ± 0.84,22 ± 1.5,24.8 ± 8.3,23.5 ± 2,20.2 ± 3.3,40 ± 3.5
CCNS(=O)(=O)c1ccccc1C [N-Ethyl-o-toluenesulfonamide],52.7 ± 7.9,46.9 ± 1.4,52.6 ± 6.1,23.5 ± 1.3,23.2 ± 2.6,26.3 ± 2.6,19.8 ± 2.8,25.7 ± 2.5,18.8 ± 3,68.2 ± 2.2
Cc1cccc(C)c1N(Cn1cccn1)C(=O)C[S+](C)[O-] (stereo not given) [Metazachlor BH 479-11],46 ± 4.5,50.3 ± 0.97,51.8 ± 4.5,5.75 ± 0.43,9.79 ± 2.3,11.1 ± 1.1,59.7 ± 9,57.3 ± 4.7,49.7 ± 6.9,68.7 ± 3.1
O=C1Nc2ccc(Cl)cc2C(c2ccccc2Cl)=NC1O (stereo not given) [Lorazepam],36.5 ± 2.4,30.9 ± 2.8,45.6 ± 7,4.25 ± 0.37,8.29 ± 1.1,9.18 ± 1.4,38.9 ± 5.5,38.9 ± 3,31.1 ± 1.8,72.1 ± 3.6
O=C(Nc1ccc(Cl)cc1)Nc1ccc(Cl)c(Cl)c1 [Triclocarban],,35 ± 5,25.7 ± 4.4,5.9 ± 0.44,7.7 ± 0.6,8.27 ± 0.72,29.8 ± 8.2,28.2 ± 4.9,24.3 ± 4,55.4 ± 4.4
CCNc1ccc2c(C)cc(=O)oc2c1 [7-(Ethylamino)-4-methylcoumarin],42.9 ± 6.9,45.6 ± 5.5,50 ± 6,26.7 ± 4.1,28.7 ± 3,30.7 ± 1.9,6.09 ± 0.59,4.96 ± 0.66,2.87 ± 0.15,77.9 ± 3.2
CCOP(=O)(OCC)OC(=CCl)c1ccc(Cl)cc1Cl [Chlorfenvinphos],,,49.5 ± 8.3,43.3 ± 1.2,44.3 ± 3.6,44.1 ± 0.92,0.151 ± 0.26,,,
CCNc1nc(NC(C)C)nc(SC)n1 [Ametryn],,41.6 ± 3.1,44.1 ± 4.6,13.2 ± 4.9,20.6 ± 7.4,23.9 ± 3.2,24.3 ± 4.5,9.36 ± 2,4.74 ± 0.84,72.1 ± 3.1
N#Cc1nn(-c2c(Cl)cc(C(F)(F)F)cc2Cl)c(N)c1C(F)(F)F [Fipronil desulfinyl],,30.2 ± 6.1,67.3 ± 7.3,33.7 ± 0.57,36.3 ± 2.9,34.8 ± 0.66,17.6 ± 2.5,18 ± 1.9,13.8 ± 0.85,53.7 ± 4.2
O=C(Nc1ccccc1-c1ccc(Cl)cc1)c1cccnc1Cl [Boscalid],63.9 ± 10,59.7 ± 2.4,48.2 ± 7.4,41.6 ± 1.9,45.5 ± 2.2,44.7 ± 0.64,4.82 ± 0.75,5.2 ± 0.48,3.13 ± 0.17,81.6 ± 1.8
CCOP(=O)(OCC)OCC [Triethylphosphate],,18.9 ± 3.4,16.6 ± 7.5,,,15 ± 4.8,12.1 ± 7,15.8 ± 2.1,6.74 ± 1.1,

SMILES,"chemical recovery [1, 4] [%]","chemical recovery [1, 5] [%]","chemical recovery [1, 6] [%]",chemical recovery into PDMS ([2]; equilibration time (d): 1) [%],chemical recovery into PDMS ([2]; equilibration time (d): 3) [%],chemical recovery into PDMS ([2]; equilibration time (d): 6) [%],chemical recovery by SPE of plasma ([3]; equilibration time (d): 1) [%],chemical recovery by SPE of plasma ([3]; equilibration time (d): 3) [%],chemical recovery by SPE of plasma ([3]; equilibration time (d): 6) [%],"chemical recovery [1, 7] [%]"
C#C[C@]1(OC(C)=O)CC[C@H]2[C@@H]3CCC4=CC(=NO)CC[C@@H]4[C@H]3CC[C@@]21CC (mixture of isomers) [Norgestimate],,,24.5 ± 5.8,15.9 ± 6.2,9.35 ± 5.2,13.5 ± 8.6,1.42 ± 1.2,,,
c1ccc(-c2ccc(C(c3ccccc3)n3ccnc3)cc2)cc1 (stereo not given) [Bifonazol],,,46.6 ± 10,38.6 ± 3.1,38.5 ± 4.5,35.7 ± 4.3,0.932 ± 0.2,0.479 ± 0.14,0.0513 ± 0.051,
C#C[C@]1(O)CC[C@H]2[C@@H]3CCC4=CC(=O)CC[C@@H]4[C@H]3CC[C@@]21C [Norethindrone],,,54.2 ± 6.8,40.1 ± 2.1,46.1 ± 2.3,47.6 ± 1.2,,4.09 ± 7.1,3.48 ± 6,
O=P(c1ccccc1)(c1ccccc1)c1ccccc1 [Triphenylphosphine oxide],58.6 ± 6.1,54.9 ± 1.4,51.6 ± 7.2,41 ± 1.5,44.6 ± 2.8,43.5 ± 1.5,8.28 ± 1.2,8.53 ± 0.92,6.26 ± 0.28,
Cc1ccc2[nH]nnc2c1 [5-Methyl-1H-benzotriazole],54.6 ± 2.9,46.3 ± 3,51.7 ± 8.2,3.14 ± 0.15,6.47 ± 1.2,8.16 ± 2,45.5 ± 4.2,42.2 ± 5.6,36 ± 2.7,58.1 ± 3.9
Cc1nc2ccccc2s1 [2-Methylbenzothiazole],,0.149 ± 0.18,0.912 ± 0.53,8.73 ± 6,,5.9 ± 0.22,0.0827 ± 0.14,0.253 ± 0.11,0.0669 ± 0.12,
CCNc1nc(NC(C)(C)C)nc(SC)n1 [Terbutryn],,46.2 ± 2.5,48.2 ± 6.7,21.7 ± 8.2,21.5 ± 6.8,22.9 ± 3.2,1.3 ± 0.11,1.01 ± 0.25,0.516 ± 0.03,68.8 ± 3.2
Cc1cccc(C)c1N(Cn1cccn1)C(=O)CCl [Metazachlor],42.8 ± 5,38.6 ± 2.5,53.5 ± 7.4,40.1 ± 1.9,42.9 ± 2.5,42.7 ± 2.1,1.5 ± 0.11,1.57 ± 0.29,0.82 ± 0.13,66.2 ± 2.7
CCOC1Oc2ccc(OS(C)(=O)=O)cc2C1(C)C (stereo not given) [Ethofumesate],43.9 ± 5.2,48.8 ± 1.2,52.8 ± 9.5,40.5 ± 3.4,42.3 ± 2.6,44 ± 0.63,0.62 ± 1.1,1.94 ± 1.7,0.896 ± 1.6,
C/C(=N\C#N)N(C)Cc1ccc(Cl)nc1 [Acetamiprid],51.9 ± 4.8,40.7 ± 3,56.8 ± 6.8,9.86 ± 0.62,15.7 ± 2.8,17.2 ± 2.9,46.9 ± 3.9,42.3 ± 4.8,33.6 ± 4,75 ± 2.6
CC(C)(Oc1ccc(CCNC(=O)c2ccc(Cl)cc2)cc1)C(=O)O [Bezafibrate],47.8 ± 3.6,45.5 ± 3.2,52.7 ± 4.8,0.000935 ± 0.0016,0.00082 ± 0.0014,,52.7 ± 6.2,56.9 ± 2.6,53.6 ± 2.6,74.9 ± 2.3
CC(C)NCC(O)COc1ccc(COCCOC(C)C)cc1 (stereo not given) [Bisoprolol],26.7 ± 3.1,42.2 ± 4,47.4 ± 6.3,0.0185 ± 0.032,,,32.2 ± 3.3,34.4 ± 3.7,31.1 ± 2.7,70.7 ± 1.7
CC(C)N(C(=O)CCl)c1ccccc1 [Propachlor],,28.6 ± 2.1,41.4 ± 7.8,31.9 ± 1.8,34.7 ± 3.9,35.3 ± 2.5,1.58 ± 0.41,2.49 ± 0.44,1.58 ± 0.092,45.1 ± 10
CCOC(=O)CC(O)(CC(=O)OCC)C(=O)OCC [Triethylcitrate],32.4 ± 8.6,38.1 ± 0.71,43.2 ± 5,23.6 ± 0.89,23.1 ± 3.8,26.2 ± 2.7,18.1 ± 0.54,26.1 ± 4.4,17 ± 1.2,
CN(C)NC(=O)CCC(=O)O [Daminozide],,,3.23 ± 3.4,,,0.0133 ± 0.023,1.49 ± 2.5,0.206 ± 0.36,0.536 ± 0.28,
COC(=O)Nc1nc2ccccc2[nH]1 [Carbendazim],55.8 ± 5.5,58.8 ± 4.2,51.3 ± 6.5,16.9 ± 1.1,25.7 ± 2.7,27.6 ± 2.8,31.6 ± 3.2,24.5 ± 2.5,10.6 ± 9.6,76.8 ± 3.4
Clc1ccc(Cl)c(-c2cc(Cl)c(Cl)cc2Cl)c1 [PCB101],54.76 ± 0.33,1.78 ± 0.57,14 ± 2.6,88.4 ± 5.7,98.4 ± 14,96.9 ± 3.5,1.75 ± 1.3,1.62 ± 0.22,1.45 ± 0.38,91.2 ± 10
CNC(=O)/C(=N/OC)c1ccccc1COc1cc(C)ccc1C [Dimoxystrobin],60.1 ± 20,35.7 ± 4,50.3 ± 9.1,42.8 ± 4.3,44.9 ± 3.4,43.2 ± 1.9,3.56 ± 3.1,9.02 ± 0.83,7.35 ± 0.63,72.7 ± 5.8
O=P(OCCCl)(OCCCl)OCCCl [Tris(2-chloroethyl)phosphate],52.1 ± 4.5,47.4 ± 2.1,52.3 ± 5.5,37.5 ± 1.4,39.8 ± 1.5,40.8 ± 2.8,15 ± 1.6,15 ± 1.8,9.84 ± 0.88,69.9 ± 2.8
